Columns and labels:
Aldose reductase II = Aldose reductase II (Homo sapiens, UniProt P15121); test: Aldose reductase inhibitory activity (NADPH decrease at 340 nm, DL-glyceraldehyde substrate); assay type: biochemical; details: pH 6.2, 100 mM DL-glyceraldehyde, 1.5 mM NADPH
Protocol: A reaction solution containing a 200 mM of a phosphate buffer solution (pH 6.2), 1.5 mM of reduced nicotinamide adenine dinucleotide phosphate (NADPH), 1 mg/ml of bovine serum albumin, a test compound, and 100 mM of DL-glyceraldehyde as a substrate was prepared. Aldose reductase II (5.1×10^−1 unit/ml) was added to the solution to initiate the reaction, and the amount of NADPH reduced by the reaction was measured at an absorption wavelength of 340 nm using a spectrophotometer.

mice = test: Acute toxicity test; assay type: in vivo; details: 500 mg/kg body weight, three mice
Protocol: Compound 28 was orally administered to three mice at a dose of 500 mg/kg body weight, the maximum amount considered to be prescribed for the mouse in one dose.

Compound: O=C(O)Cn1c2c(c3c(F)cc(F)cc31)CCN(Cc1ccccc1)C2=S [Compound 28, (2-Benzyl-5,7-difluoro-1-thioxo-1,2,3,4-tetrahydro-β-carbolin-9-yl)acetic acid]
- IC50 (Aldose reductase II): 2.5 µM
- Survival after single oral dose (mice): all of the three mice survived
- Abnormalities in internal organs, action, etc. (mice; oral): no abnormalities being observed

Source: patent publication US8198447B2, “Fused tricyclic compound having aldose reductase inhibitory activity” (National University Corporation University of Toyama, priority 2007, dated 2012)
